# Assays:
# [1] = sufficiently purified trans-(+)-Δ^9-THC; cited from earlier work
# [2] = delivery by inhalation (e.g., by smoking); cited from earlier work
# [3] = purified resinous material, background statement; cited from earlier work
# [4] = stability of the substance to air, light and temperature (appearance)
molecule,measurement,setting,value
"CCCCCc1cc(O)c2c(c1)OC(C)(C)[C@H]1CCC(C)=C[C@H]21 [trans-(+)-Δ^9-THC, trans-(+)-Δ^9-tetrahydrocannabinol]",activity relative to the trans-(−)-Δ^9-THC enantiomer,[1],~1%
"CCCCCc1cc(O)c2c(c1)OC(C)(C)[C@@H]1CCC(C)=C[C@@H]21 [trans-(−)-Δ^9-THC, (−)-6a, 10a-trans-Δ^9-tetrahydrocannabinol]",onset of pharmacological activity,[2],≤ 10 minutes
same,"chemical stability to light, oxygen and heat",[3],"chemically unstable to light, oxygen, and heat"
trans-(±)-Δ^9-tetrahydrocannabinol [crystalline trans-(±)-Δ^9-THC],stability,"[4]; 25° C. in the presence of air and laboratory lighting, Example 12 material",stable
same,retention of white appearance,"[4]; 25° C., Example 10 material, expected",retain that white appearance for at least three days
same,appearance after storage,[4]; held for three days at room temperature in the presence of air and laboratory lighting,remained white
